# Patent US20030104461A1, “Methods for detecting cells with numerical chromosomal abnormalities” (priority 2001, published 2003)
# Where two headings read alike, the source gives them in different places.
# Experiments:
# [1] = test system: human lymphocytes
# Procedure: Peripheral blood was collected in heparinized vacutainers from healthy male and female volunteers (<40 years of age). Approximate 10 ml of whole blood was dispensed into a Lymphoprep™ tube (Nycomed Pharma AS Diagnostic, Oslo, Norway) containing ˜10 ml of sterile phosphate buffered saline. Following centrifugation for 20 minutes at 2000 rpm, the lymphocyte population was isolated and washed (1X) in PBS. Stock cultures of isolated lymphocytes were established in Williams E medium supplemented with 10% fetal calf serum, 100 U/ml penicillin and 100 ug/ml streptomycin, 2 mM L-glutamine and 1.0% Phytohemmaglutanin-M form (all reagents from Gibco BRL Life Technologies, Inc., Grand Island, N.Y.). The stock cultures were maintained at 37° C. in 5% CO2 atmosphere for about 48 hours. The lymphocytes were treated with 0 to 100 μg/ml of the aneugen, Noscapine, (Sigma Chemicals), a known aneugen, for 24 hours at 37° C.
# The Noscapine treated and untreated lymphocytes, were then centrifuged for 6 minutes at 1000 rpm, the supernatant was removed and the lymphocytes were resuspended in 5 ml of Phosphate Buffered Saline (PBS; GIBCO BRL). The lymphocytes were then centrifuged, the supernatant removed, and the cells resuspended in 0.5 ml of PBS. The cell suspension was pipetted thoroughly through a 9-inch Pasteur pipette (Kimble Glass Inc.) to ensure single cell suspension. While vortexing a tube containing −20° C. (70%) ethanol (about 4.5 ml volume), the cell suspension was added drop by drop. The ethanol solution was prepared by adding 30 ml of distilled water to 70 ml of 200 proof ethyl alcohol from Phamco Products. The cells were then stored at −20° C. in the ethanol for at least 24 hours.
# The cells that were stored at −20° C. for at least 24 hours were stained with the H3-P antibody and Alexa Fluor as described above for the H3-P+Alexa (GREEN) stained cells. After the incubation of the cells for 30 minutes at 37° C. with the Alexa Fluor, 5 ml of PBS was added to the cells, the cells were centrifuged, the supernatant removed and the cell pellet resuspended in 1.0 ml of PI/RNase A stain (as described above). The cells were stored on ice until analyzed.
# Exited instrument set up mode to acquisition mode. Acquisition for DNA analysis was started and 10,000 ungated cells were acquired. […] The FL2 voltage was optimized as needed per sample (i.e., to keep the G1 peak on 200 of FL2-A x-axis) for Aneuploidy and Polyploidy acquisition. 50,000 ungated cells were acquired from each sample. The data was saved in listmode format.
# The presence of aneuploid and polyploid cells in the lymphocytes was determined as follows. CellQuest™ Software was opened, and PLOT and OPEN a dialog box from the tool bar for creating a dot plot. FILE was selected and a data file was opened. […] The dot plot was expanded to the width of the paper. A gate was set for the DNA distribution by starting slightly to the left of the cycling population then continuing to the far right region of the dot plot ending the gate at the 2nd Y axis. The extension of this gate to the 2nd Y-axis of the dot plot was to accommodate cells with greater than 4n DNA (see FIG. 1A). PLOT and OPEN a dialog box was chosen from the tool bar for creating a dot plot.
# Using the interphase cells as a guide, the first gate was set over the mitotic cell area above the G0G1-S phase areas.
# [2] = test system: human lymphocytes; test: Manual microscopic analysis of polyploid cells (polyploid index, Giemsa stained slides); type: cell-based; conditions: at each concentration of Noscapine; 1000 consecutive mitotic cells scored for 8n mitotic cells
# Procedure: Human lymphocytes described above and treated or not with Noscapine as described above were subjected to manual analysis of numerical chromosomal abnormalities for comparison with the number of cells having numerical chromosomal abnormalities (i.e. polyploidy) obtained in Example 1. For manual analysis, samples of cells were centrifuged for 6 minutes at 1000 rpm. The supernatant was removed and the cell pellet was resuspended in 5 ml of 1% pre-warmed (37° C.) sodium citrate. The latter solution was prepared by mixing 1 g of […] (Sigma Chemicals) in 100 ml of distilled water. The cells were immediately centrifuged as described above. The supernatant was removed and the pellet was vigorously re-suspended in 5 ml of 4° C. fixative (3:1 methanol:acetic acid). The cells were then centrifuged as described above and the pellet resuspended in 5 ml of 4° C. fixative (3:1 methanol:acetic acid). The cells were then stored overnight at −20° C. or until slide preparation. The slides were prepared as follows. The cells were centrifuged as described above and the supernatant was then poured off. The pellet was re-suspended in about 2 ml of fresh fixative solution. […] The polyploid index was determined by systematically scoring 1000 consecutive mitotic cells for the frequency of 8n mitotic cells under low magnification (bright field).
# [3] = stimulated human lymphocytes treated 24 hours at 37° C., flow cytometry
structure (smiles),measurement,setting,value
C=C1[C@@H](C)[C@H]2[C@H](Cc3ccccc3)NC(=O)[C@]23OC(=O)/C=C/[C@H](O)CCC[C@@H](C)C/C=C/[C@H]3[C@@H]1O [Cytochalasin B],percent of hyperdiploid cells (mitotic cells with DNA content >4n but <8n),[1]; [3],minimal
same,percent of hypodiploid cells (mitotic cells with DNA content >2n but <4n),[1]; [3],high
same,percent of polyploid cells (mitotic cells with DNA content of 8N),[1]; [3],high
"CN[C@H]1CCc2cc(OC)c(OC)c(OC)c2-c2ccc(OC)c(=O)cc21 [Colcemid®, Colcemid]",percent of hyperdiploid cells (mitotic cells with DNA content >4n but <8n),[1],increased
same,percent of hypodiploid cells (mitotic cells with DNA content >2n but <4n),[1],increased
same,percent of polyploid cells (mitotic cells with DNA content of 8N),[1],high
COc1ccc2c(c1OC)C(=O)O[C@@H]2[C@H]1c2c(cc3c(c2OC)OCO3)CCN1C [Noscapine],number of polyploid cells counted manually compared with flow cytometric evaluation,[2],similar
